Source: US5281594A, “Substituted 1-(alkoxyphenyl)piperazines with ons and antihypertensive activity” (The Upjohn Company, priority 1992, dated 1994)
Read-outs that look alike come from different tables or passages of the source.

Legend:
D2 receptor [1] = biological target: T1, D2 receptor (Rattus norvegicus, UniProt P61169); experiment: biochemical; type: binding; conditions: for binding to dopamine receptors (in words): at concentrations as high as 1,000 nM (m-tolyl) and 10,000 nM (p-methoxyphenyl), respectively
T1 sequence (P61169 whole entry): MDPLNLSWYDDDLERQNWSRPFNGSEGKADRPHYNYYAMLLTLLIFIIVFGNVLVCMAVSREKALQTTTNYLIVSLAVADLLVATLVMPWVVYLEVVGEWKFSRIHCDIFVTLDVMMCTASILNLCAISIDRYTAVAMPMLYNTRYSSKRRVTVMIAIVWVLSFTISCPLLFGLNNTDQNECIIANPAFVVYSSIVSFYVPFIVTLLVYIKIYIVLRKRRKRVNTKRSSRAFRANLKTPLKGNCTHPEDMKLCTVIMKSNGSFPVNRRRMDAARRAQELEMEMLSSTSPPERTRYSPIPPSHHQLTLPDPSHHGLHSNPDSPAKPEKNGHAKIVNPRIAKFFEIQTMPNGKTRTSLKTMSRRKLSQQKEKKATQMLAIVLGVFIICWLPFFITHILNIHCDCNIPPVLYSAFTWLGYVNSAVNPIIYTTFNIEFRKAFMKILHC
Method: The compounds of the invention are tested in a series of assays known by those skilled in the art as predictive for activity as dopamine partial agonists. […] Drugs. […] Except as otherwise stated, all other chemicals are widely available from commercial sources.
1. Dopamine Receptor Binding
Since a dopamine partial agonist must bind to the dopamine receptor, binding studies are used to determine the affinity of a compound for the receptor. […] The dopamine receptor affinity of the prior art compounds is compared to two compounds of the present invention following the procedure described in R. H. Roth. Comm. […] Compounds are tested at least four concentrations in triplicate. Non-specific binding is determined using 1 uM thioridazine.

[2] = tested on: dopaminergic neurons in the substantia nigra (SNPC); experiment: Dopamine nerve impulse generation: depression of firing of substantia nigra dopamine neurons (agonist); type: in vivo, Sprague-Dawley rats; conditions: for ED50 / Emax: Rattus norvegicus, Neuron, iv; for ED50: read-out: Agonist ED50: dose to depress firing by 50%; for Emax: read-out: Agonist Max.: maximal depression of firing; for maximal depression on DA cell firing (% of control): 1 mg/kg i.v.
Text: (§1) 3. Dopamine Nerve Impulse Generation
Dopaminergic agonists, such as apomorphine, depress nerve impulses generated by dopaminergic neurons. Indeed, all full dopamine agonists can completely suppress impulse generation so that the dopamine cells stop firing completely. As the name implies, partial agonists depress impulse generation only partly.
(§2) The activity of two compounds of the invention are compared with other known drugs in their effect on nerve impulse generation. Sprague-Dawley rats weighing between 250-350 g are anesthetized with chloral hydrate (400 mg/kg i.p.). Supplemental doses (50-100 mg/kg) are administered as needed. The fermoral artery and vein are cannulated to measure blood pressure and to permit i.v. administration of drug. Body temperature is maintained at 37° C. using a deltaphase isothermal pad. The animal's head is held in a stereotaxic device and a small burr hole made in the cranium. Extracellular action potentials are recorded with a glass microelectrode (tip size<1μm) filled with pontamine sky blue dye in 2M sodium chloride.
(§3) Dopaminergic neurons are identified by their long duration action potential (>2.5 ms), shape and firing pattern ([…]) according to B. S. Bunney and G. K. Aghajanian "Antipsychotic Drugs and Central Dopaminergic Neurons: A Model for Predicting Therapeutic Efficacy and Incidence of Extrapyramidal Side Effects, In: Predictability in Psychopharmacology: Preclinical and Clinical Correlates, eds.", Raven Press, N.Y., pp. 225-245 (1975). […] Watson "The Rat Brain in Stereotaxic Coordinates", Academic Press, Sydney (1982).
(§4) At the termination of each recording session, the location of the cell in the substantia nigra is identified by passing 10 μA cathodic current through the recording electrode for 10-20 minutes. The brain is then removed, fixed in 10% formalin, sectioned and stained, and the pontamine sky blue deposit verified in each animal.
(§5) All drug solutions are made in distilled water. Each drug injection contained no more than 0.15 ml of a given concentration, followed by a 0.2-0.4 ml of physiological saline to clean the catheter of any residual drug. Drug effects are measured as changes in firing rates as indicated by an integrated output throughout the experiment.

[3] = tested on: dopaminergic neurons in the substantia nigra (SNPC); experiment: Dopamine nerve impulse generation: reversal of amphetamine-induced depression of firing (antagonist); type: in vivo, Sprague-Dawley rats; conditions: for ED50: Rattus norvegicus, Neuron, iv, read-out: Antagonist ED50: dose to reverse amphetamine by 50%
Text: as §1
Dopamine partial agonists act as dopamine antagonists when dopaminergic activity is excessive. Excessive dopaminergic activity can be induced by amphetamine, which causes dopamine to be released at nerve terminals in dopaminergic postsynaptic areas such as the caudate nucleus. This released dopamine activates negative feedback systems connecting postsynaptic dopaminergic areas to dopamine cells (e.g., the caudate nucleus feeds back onto substantia nigra neurons). Through this negative feedback system, amphetamine inhibits nerve impulses in dopamine neurons. Because dopamine antagonists block the access of dopamine to its receptors, these agents block the activation of the negative feedback pathways. Thus, dopamine antagonists and dopamine partial agonists block or reverse amphetamine's depression in dopamine nerve impulse activity. Because dopamine antagonists block not only the dopamine released by amphetamine but also the dopamine released for maintenance of a normal physiological state, dopamine antagonists not only completely reverse the effects of amphetamine but may actually cause an increase in dopamine neuron impulse activity (i.e. reverse amphetamine's inhibition by more than 100%). […] Indeed, partial agonists with higher intrinsic activities only partially reverse the effects of amphetamine.
as §2, §3, §4, §5

[4] = tested on: dopamine receptor within the central nervous system; experiment: Block of apomorphine-induced cage climbing; type: in vivo, CF-1 mice; conditions: i.p., 25 minutes before apomorphine HCl 2.5 mg/kg i.p.; i.a. = inactive at top dose of 50 mg/kg
Method: Administration to mice stimulates dopaminergic receptors which results in enhanced locomotor activity, including climbing up the sides of wire cages. […] As a specific measure of their antagonistic effect, both the prior art compounds and the compounds of the invention are tested in their ability to block agonist-induced locomotor activity. […] During this time, mice that climb the walls more than half-way to the top (6") are removed from the cage. […] Co., New York, N.Y., p.

[5] = tested on: amphetamine-induced stereotyped behavior; experiment: Antagonism of amphetamine-induced stereotyped behavior; type: in vivo, Sprague-Dawley rats; conditions: for minimal effective dose: Rattus norvegicus, ip, i.p. 30 minutes before d-amphetamine (10 mg/kg s.c.), read-out: Antagonism amphetamine stereotypy: threshold dose for effect
Text: Amphetamine releases excessive dopamine and induces a state in animals that serves as a model of positive-symptom schizophrenia. Amphetamine stimulates excessive locomotor activity in the rat, including uncontrolled stereotyped movements, characterized by licking and chewing. This model is indicative of the human response as amphetamine abuse is characterized by schizophrenic-like behavior in humans. Thus compounds may be tested in their ability to antagonize amphetamine.

catalepsy [6] = conditions: rat, in vivo
D2 receptor [7] = biological target: T1, D2 receptor; conditions: rat striata; Kohler; cited from earlier work
D2 receptor [8] = conditions: PET scanning in humans; Farde; cited from earlier work
catalepsy [9] = experiment: Catalepsy
[10] = 3H-raclopride, whole rat brain, non-specific binding with 1 uM thioridazine, i.a. = inactive at specified concentration, read-out: Ki (dose for 50% occupation of the receptors)

What does the source list for `CN1C[C@@H](NC(=O)C(C)(C)C)C[C@@H]2c3cccc4[nH]c(Cl)c(c34)C[C@H]21` [SDZ 208-912, N-[(8-α)-2-chloro-6-methyl-ergoline-8-yl]-2,2-dimethylpropanamide]?
Ki (D2 receptor [1]): 15.7 nM; ED50 [2]: 0.021 mg/kg; Emax [2]: 16%; ED50 [3]: 0.115 mg/kg; Antagonist Max.: maximal reversal of amphetamine ([3]; i.v.): 93%

Which results are given for `Cl.O=C1N(CCCN2CCN(c3ccccc3)CC2)CCN1c1ccccc1` [1-phenyl-3-[3-(4-phenyl-1-piperazinyl)propyl]-2-imidazolidinone hydrochloride]?
Ki (D2 receptor [1]; read-out: Ki (dose for 50% occupation of the receptors)): 323 nM; ED50: dose for elimination of climbing behavior in 2 of 4 animals [4]: i.a.

Which results are given for `CN1CCc2cccc3c2[C@H]1Cc1ccc(O)c(O)c1-3` [Apomorphine]?
Emax ([2]; Table 3): 100%; ED50 ([2]; i.a. = inactive): 0.01 mg/kg; Antagonist Max.: maximal reversal of amphetamine ([3]; i.v.): 0%; Antagonist ED50: dose to reverse amphetamine by 50% ([3]; i.v., i.a. = inactive): i.a.

With `CCCN(CCC)C1Cc2cccc3cc(O)cc(c23)C1` (single isomer, unassigned; (-)) [(-)-z-(dipropylamino)-2,3-dihydro-1-H-phenalen-5-ol] as the molecule, how does the Ki (D2 receptor [1]) read?
Its Ki is 0.47 nM.

With “7-hydroxy-1,2,3,4,4a,5,6,10-octahydrobenzo(f)quinoline [HW-165]” as the molecule, how does the “Agonist Max.: maximal depression of firing” value ([2]; i.v., Table 3) read?
Its value is 85%.

What about the “Agonist ED50: dose to depress firing by 50%” value ([2]; i.v., i.a. = inactive) of the same molecule?
Its value is 0.18 mg/kg.

Which Ki (D2 receptor [1]; [10]) does the source give for `CCN(CC)C(=O)N[C@H]1C[C@@H]2c3cccc4[nH]cc(c34)C[C@H]2N(C)C1` [TDHL, 1-1-diethyl-3-(6-methyl-8α-ergoline)-urea dihydrogenphosphate] here?
The Ki was 0.95 nM.

What about the “ED50: dose for elimination of climbing behavior in 2 of 4 animals” value (shortened to “ED50: dose for elimination”) [4] of the same molecule?
The value was 35 mg/kg.

What about the ED50 [2] of the same molecule?
Its ED50 is 0.021 mg/kg.

And the Emax [2]?
Its Emax is 53%.

What about the ED50 [3] of the same molecule?
The ED50 was 0.136 mg/kg.

What about the “Antagonist Max.: maximal reversal of amphetamine” value (“Antagonist Max.: maximal reversal” below) ([3]; i.v.) of the same molecule?
Its value is 60%.

For `O=C(CCCN1CCC(O)(c2ccc(Cl)cc2)CC1)c1ccc(F)cc1` [Haloperidol], which Emax [2] is on record?
The Emax was 0%.

What about the “Agonist ED50: dose to depress firing by 50%” value ([2]; i.v., i.a. = inactive) of the same molecule?
The value was “i.a”.

What about the ED50 ([3]; i.a. = inactive) of the same molecule?
Its ED50 is 0.008 mg/kg.

What about the “Antagonist Max.: maximal reversal” value ([3]; i.v.) of the same molecule?
The value was 163%.

And the minimal effective dose [5]?
Its minimal effective dose is 1 mg/kg.

What about the “Catalepsy: threshold dose for effect” value (catalepsy [6]) of the same molecule?
Its value is 1.0 mg/kg.

For `Cc1cccc(N2CCN(CCCN3CCN(c4cccc(Cl)c4)C3=O)CC2)c1` [1-(m-chlorophenyl)-3-[3-[4-(m-tolyl)-1-piperazinyl]propyl]-2-imidazolidinone], which Ki (D2 receptor [1]; [10]) is on record?
The Ki was greater than 1000 nM.

And the “binding to dopamine receptors (in words)” value (D2 receptor [1])?
The value was “do not bind at all”.

What about the “ED50: dose for elimination” value [4] of the same molecule?
Its value is “i.a”.

For `COc1ccccc1N1CCN(CCCCN2CCN(c3cccc(Cl)c3)C2=O)CC1` [Example 2, 1-(3-chlorophenyl)-3-[4-[4-(2-methoxyphenyl)-1-piperazinyl]butyl]-2-imidazolidinone], which Ki (D2 receptor [1]; [10]) is on record?
The Ki was 3.7 nM.

And the “ED50: dose for elimination” value [4]?
The value was 42 mg/kg.

And the “maximal depression on DA cell firing (% of control)” value [2]?
Its value is 54%.

What about the “further depression of SNPC cells on increasing the dose (in words)” value ([2]; 3 mg/kg vs 1 mg/kg i.v.) of the same molecule?
Its value is “does not further increase the depression in SNPC cells”.

And the Emax ([2]; Table 3)?
Its Emax is 54%.

And the ED50 ([2]; i.a. = inactive)?
Its ED50 is 0.108 mg/kg.

What about the “depression of SNPC cells (in words)” value ([2]; i.v.) of the same molecule?
The value was “behaved as dopamine partial agonists”.

What about the ED50 ([3]; i.a. = inactive) of the same molecule?
The ED50 was 0.343 mg/kg.

What about the “Antagonist Max.: maximal reversal” value ([3]; i.v.) of the same molecule?
Its value is 73%.

With `CCCN1CCCC(c2cccc(O)c2)C1` (single isomer, unassigned; (-)) [(-)-3-PPP, (-)-3-(3-hydroxyphenyl)-N-n-propylpiperidine] as the molecule, how does the Emax ([2]; Table 3) read?
The Emax was 70%.

And the ED50 ([2]; i.a. = inactive)?
Its ED50 is 0.086 mg/kg.

Which results are given for `Cc1[nH]c2cccc3c2c1C[C@@H]1[C@@H]3C[C@H](NC(=O)C(C)(C)C)CN1C` [SDZ 208-911, N-[(8-α)-2,6-dimethyl-ergoline-8-yl]-2,2-dimethylpropanamide]?
ED50 [2]: 0.038 mg/kg; Emax [2]: 38%; ED50 [3]: 0.132 mg/kg; Antagonist Max.: maximal reversal of amphetamine ([3]; i.v.): 92%

Which Bmax (D2 receptor [1]; 3H-raclopride, whole rat brain) does the source give for `CCN1CCC[C@H]1CNC(=O)c1c(O)c(Cl)cc(Cl)c1OC` [raclopride] here?
The Bmax was 1.6 pmoles/g tissue.

And the B max (D2 receptor [7])?
Its B max is 23.5 pmoles/g tissue.

And the “binding to the D2 receptor (in words)” value (D2 receptor [8])?
Its value is “binds to the D2 receptor”.

Which results are given for `COc1ccccc1N1CCN(CCCCN2CCN(c3ccccc3)C2=O)CC1` [Example 1, 1-[4-[4-(2-methoxyphenyl)-1-piperazinyl]butyl]-3-phenyl-2-imidazolidinone]?
Ki (D2 receptor [1]; [10]): 2.6 nM; ED50: dose for elimination of climbing behavior in 2 of 4 animals [4]: 12 mg/kg; maximal depression on DA cell firing (% of control) [2]: 32%; Emax ([2]; Table 3): 36%; ED50 ([2]; i.a. = inactive): 0.016 mg/kg; depression of SNPC cells (in words) ([2]; i.v.): behaved as dopamine partial agonists; ED50 ([3]; i.a. = inactive): 0.04 mg/kg; Antagonist Max.: maximal reversal of amphetamine ([3]; i.v.): 70%; antagonism of amphetamine-induced excessive dopaminergic activity (in words) ([3]; i.v.): only partially antagonized amphetamine; minimal effective dose [5]: 0.3 mg/kg; antagonism of amphetamine stereotypy, potency relative to haloperidol (in words) ([5]; rat, in vivo): antagonizes amphetamine stereotypy with a potency greater than that of halperidol; Catalepsy: threshold dose for effect (catalepsy [9]; defined as 200% increase in time a rat will spend leaning on a box without aid): 10 mg/kg; catalepsy relative to dose blocking amphetamine-induced stereotypy (in words) (catalepsy [9]; rat, in vivo): produces catalepsy only at doses much higher that required to block amphetamine-induced stereotypy

For `COc1ccc(N2CCN(CCCN3CCN(c4cccc(Cl)c4)C3=O)CC2)cc1` [1-(m-chlorophenyl)-3-[3-[4-(p-methoxy-phenyl)-1-piperazinyl]propyl]-2-imidazolidinone], which Ki (D2 receptor [1]; [10]) is on record?
Its Ki is greater than 10000 nM.

And the “binding to dopamine receptors (in words)” value (D2 receptor [1])?
The value was “do not bind at all”.

What about the “ED50: dose for elimination” value [4] of the same molecule?
The value was “i.a”.
